Test results taken from patent publication US12534748B2, “Engineered beta-subunit of tryptophan synthase for production of non-canonical amino acids” (California Institute of Technology, priority 2015, dated 2026).
Values joined by “and” are separate entries in the source; they are usually repeats but may differ in a detail not shown here. Identical values can stand only once.

Assays:
[1] = molecular target: T1, Pyrococcus furiosus tryptophan synthase beta-subunit PfTrpB, wild type, SEQ ID NO: 2 (Pyrococcus furiosus, UniProt Q8U093); test: Tryptophan formation from L-serine and indole, kinetics of wild-type PfTrpB; format: biochemical; settings: 75° C., pH 8.0, Trp formation at 290 nm
T1 sequence (Q8U093 with tags, fused parts or gaps): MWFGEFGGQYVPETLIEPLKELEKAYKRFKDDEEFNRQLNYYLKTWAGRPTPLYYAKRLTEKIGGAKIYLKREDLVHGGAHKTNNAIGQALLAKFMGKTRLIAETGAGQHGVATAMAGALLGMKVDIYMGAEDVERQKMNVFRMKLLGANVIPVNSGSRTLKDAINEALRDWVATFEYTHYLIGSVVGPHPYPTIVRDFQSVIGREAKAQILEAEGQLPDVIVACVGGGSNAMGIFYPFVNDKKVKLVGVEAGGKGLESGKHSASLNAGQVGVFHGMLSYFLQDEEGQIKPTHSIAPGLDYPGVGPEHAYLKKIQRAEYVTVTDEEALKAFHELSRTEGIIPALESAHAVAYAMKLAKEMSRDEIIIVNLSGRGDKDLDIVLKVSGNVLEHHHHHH
Procedure: Cloning, Expression, and Purification of PfTrpA and PfTrpB. The genes encoding PfTrpB (UNIPROT ID Q8U093) and PfTrpA (UNIPROT ID Q8U094) were obtained as gBlocks and cloned into pET22(b)+ for expression in E. coli BL21 E. cloni EXPRESS cells (Lucigen). Heterologous protein expression of PfTrpA and PfTrpB was performed in Terrific Broth with 100 μg/mL ampicillin (TBamp) and induced with 500 mM IPTG (final concentration 1 mM). PfTrpB was purified via a HisTrap HP column. PfTrpA was purified via a Q HP HiTrap column (flow-through), followed by ammonium sulfate precipitation, and hydrophobic interaction chromatography on a phenyl Sepharose HP HiTrap column (FIG. 3).
Kinetics and UV-Vis Spectroscopy. Data were collected between 550 and 250 nm on a UV1800 Shimadzu spectrophotometer (Shimadzu) using 0.25-20 μM of enzyme in 200 mM potassium phosphate (pH 8.0) in a quartz cuvette. Samples were incubated at 75° C. for >3 min to ensure a stable temperature was reached. PfTrpB activity (kcat) was measured by monitoring tryptophan formation at 290 nm using Δe290=1.89 mM^−1·cm^−1.
Selection of the Parent Enzyme, TrpB, from Pyrococcus furiosus. […]

[2] = tested on: Thermococcus kodakarensis TrpB, wild type (literature); settings: cited from earlier work

c1ccc2[nH]ccc2c1 [indole]
kcat [1]: 0.31 s⁻¹ and 0.31 ± 0.02 s⁻¹
kcat [2]: 1.04 ± 0.03 s⁻¹
Km ([2]; read-out: KM indole): 63 ± 5 µM
